1 compound from patent US20090142364A1, “Method for finding novel peptide immunostimulatory adjuvants, compositions and methods of use” (priority 2007, published 2009) can be followed below.

One series has as its system E6/1.2 mAb. Nature of the series: Solid-phase ELISA of TentaGel-bound synthesized peptide with E6/1.2 mAb. Type of series: binding, mouse. The method, then: Different biological activities are characteristic of GMDP, including adjuvant activity, induction of non-specific resistance to infections, and the ability to induce Ia-antigen expression on murine macrophages (Khaidukov S. V. 1995). In order to evaluate the biological properties, we produced RN-peptide by solid-phase synthesis by Fmoc strategy. Two types of polymers were used, namely standard Wang's resin and TentaGel (Rapp Polymere, Germany). The synthesis carried out on Wang's resin yielded, after removal of protective groups, the free peptide which was used in biological studies after standard chromatographic purification. When hydrophilic TentaGel was used as solid support, the peptide remained bound to polymer after removal of protective groups enabling evaluation of its binding to E6/1.2 mAb by solid-phase ELISA.
Peptide synthesis. All peptides were synthesized manually by the Fmoc/t-Bu technique. Wang Resin (Bachem, Switzerland) was loaded with Fmoc-Asn(Trt)-OH via diisopropylcarbodiimide-4-dimethylaminopyridine (DIC-DMAP) procedure (Heinzelmann et al. 2000). […] Coupling efficiency during polypeptide chain assembly was routinely monitored by Kaiser ninhydrine test and in case of incomplete reactions extra couplings were carried out. […]
(In general: ELISA stands for enzyme-linked immunosorbent assay.)

Series [1] concerns antibody response to ovalbumin. Nature of the series: Adjuvant activity: antibody response to ovalbumin in mice, titer by solid-phase ELISA. Format: in vivo, Balb/c mice. To be noted: for Adjuvant index / Anti-ovalbumin antibody titer: i.p. The method, then:
To study the adjuvant activity of RN-peptide, Balb/c mice were immunized with ovalbumin in saline in the presence of the RN-peptide, its analogs or GMDP, or without any adjuvant (control). The adjuvant was introduced on first immunization, whereas second immunization was carried out with half dose of OVA without adjuvant.
Adjuvant activity. Groups of 5 Balb/c mice were administered i.p. with 2.5-10 μg ovalbumin (Sigma, USA) per mouse in 200 μl PBS. RN-peptide (0.1-100 μg) or GMDP (1-100 μg) was introduced simultaneously with ovalbumin on first immunization. The second immunization was carried out 28 days later with half dose of ovalbumin (1.25-5.0 μg/200 μl) without adjuvant. Control mice received ovalbumin twice without adjuvant. Three days after the second immunization mice were bled from the tail vein. […] Control mice received polysaccharide without any adjuvant. Five and ten days after immunization mice were bled.
The antibody titer was evaluated by solid-phase ELISA as described by Douillard and Hoffman (1983) Enzyme-linked immunosorbent assay for screening monoclonal antibody production using enzyme-labeled second antibody. The antigen (ovalbumin or polysaccharide), 5 μg/ml in bicarbonate buffer, pH 8.6 (100 μl), was introduced into wells of 96-well microtiter plate. Incubation was carried out overnight at 4° C. The plate was washed 5 times with PBS and 5 times with PBS/0.1% Tween-20 (PBS-T). Remaining binding sites were blocked with 1% gelatin in PBS (2 h, room temperature). After washing 100 μl of mouse serum (1:100 dilution) was added, and serial three-fold dilutions were made. Bound antibodies were visualized by incubation with Horse-Radish-Peroxidase (HRP)-conjugated rabbit anti-mouse antibodies and OPD as the chromogenic substrate.

Series [2] deals with antibody response to N. meningitidis serogroup C capsular polysaccharide. The series can be described thus: Antibody response to N. meningitidis serogroup C capsular polysaccharide, passive agglutination test. Format: in vivo, CBA mice. The note with it: 0.2 μg capsular polysaccharide i.v. The method, then: Immunization with capsular polysaccharide of N. meningitidis serogroup C was carried out in CBA mice. Groups of 5 mice were administered i.v. with polysaccharide C (0.2 μg) in saline in the presence of 1-100 μg of RN-peptide. Control mice were immunized with optimal dose (2 μg/mouse) of polysaccharide. Four days later mice were bled from tail vein and the antibody titer was evaluated by passive agglutination test using commercial erythrocyte diagnostic kit.

Series [3] deals with Balb/c mice peritoneal mononuclear cells (PMC). Nature of the series: Ia-antigen-inducing effect, flow cytometry, peritoneal mononuclear cells. Format: cell-based, mouse. The note with it: at optimal dose, overnight treatment. The method, then: (§1) We studied the Ia-antigen-inducing activity of RN-peptide by stimulation in vitro of murine peritoneal macrophages. Flow cytometry was used to assess Ia-antigen expression. […] The pyrogenicity of the peptide was studied in Wistar rats. […] The dynamics of alteration of rectal temperature were monitored during 2.5 h.
Balb/c mice peritoneal mononuclear cells (PMC) were isolated by Histopaque density gradient centrifugation. PMC or WEHI-3 cells were incubated with RN-peptide (0.1-10 μg/ml) or GMDP (positive control) or saline (negative control) in RPMI 1640 medium, supplemented with 5% fetal calf serum upon rotary mixing for 18 h at 37° C. Cells were stained on ice bath with MKD6 anti-Ia^d mAb (supernatant from the in vitro culture, 1:10 dilution) and FITC-labeled anti-mouse immunoglobulin (Sigma, USA, 1:300 dilution), and then with phycoerythrin-labeled F4/80 mAb (Caltag, USA, 0.2 μg/100 μl). Ia antigen expression was assessed by flow cytometry using EPICS “Elite” (Coulter, USA).
A general note: In flow cytometry, cells or beads pass a laser one at a time.

The conditions of series [4]: rat, in vivo, ip. The method, then: as §1
The pyrogenic effect SPF female Wistar rats were injected i.p. with a peptide (1.01 mg/kg; 5.74×10^−7 mole/kg) in PBS or with equal dose of GMDP (0.4 mg/kg; 5.74×10^−7 mole/kg). Rectal temperature was recorded every 5 minutes for 160 minutes using PowerLabe/4sp system with an electronic thermometer (MLT1403 Rectal Probe for Rats, AD Instruments USA). All data were quantified (mean±SEM) and compared by the variance analysis.

In the next series the test system is E. coli strain K12. The series can be described thus: Anti-infective action: survival of Balb/c mice infected with E. coli strain K12. Format: in vivo. The note with it: 1 ng-10 μg i.p. 7 days before infection, LD100 and LD50. Here is the method:
Groups of Balb/c mice (20-22 g) were administered i.p. with different doses of RN-peptide (1 ng-10 μg) or GMDP (1 ng-10 μg) in saline. Control mice received saline. […] Survival of mice was assessed during three days.

[5] abbreviates: adjuvant 0.1 μg, ovalbumin 2.5 μg then 1.25 μg.
Setting [6] is: adjuvant 1 μg, ovalbumin 2.5 μg then 1.25 μg.
Setting [7] is: adjuvant 1 μg, ovalbumin 10 μg then 5 μg.
The mark [8] stands for this setting: adjuvant 10 μg, ovalbumin 2.5 μg then 1.25 μg.
The mark [9] stands for this setting: adjuvant 10 μg, ovalbumin 10 μg then 5 μg.
Setting [10] is: adjuvant 100 μg, ovalbumin 2.5 μg then 1.25 μg.
Setting [11] is: adjuvant 100 μg, ovalbumin 10 μg then 5 μg.

Entries after “also recorded” stand apart in the source; their conditions may differ. Where a SMILES comes first, the peptide text is derived from it.

Take `CC[C@H](C)[C@H](NC(=O)[C@H](CCCCN)NC(=O)[C@H](C)NC(=O)[C@H](Cc1c[nH]cn1)NC(=O)[C@H](Cc1ccc(O)cc1)NC(=O)[C@H](CCCNC(=N)N)NC(=O)[C@@H]1CCCN1C(=O)[C@@H]1CCCN1C(=O)[C@@H](NC(=O)[C@@H](N)CCCNC(=N)N)C(C)C)C(=O)N[C@@H](CO)C(=O)N1CCC[C@H]1C(=O)N[C@@H](CCSC)C(=O)N[C@H](C(=O)N[C@@H](CC(N)=O)C(=O)O)C(C)C` [RN-peptide, RVPPRYHAKISPMVN] (H-RVPPRYHAKISPMVN-OH): the “binding to GMDP-specific mAb” value with E6/1.2 mAb is on record as “retained the ability”. In addition, in series [1] (2.5 μg OVA), the “adjuvant dose of highest response” value stood at 10 µg. For the same compound, the “anti-ovalbumin antibody titer (in words)” value in series [1] (100 μg/mouse) is “diminished”. Further, the Adjuvant index in series [1] (setting [5]) stood at 0.92 ± 0.04; in series [1] (setting [6]) it was 1.75 ± 0.06; in series [1] (setting [7]) it was 7.3 ± 0.08; in series [1] (setting [8]), 7.55 ± 0.06; in series [1] (setting [9]) it was 2.6 ± 0.05; in series [1] (setting [10]) it was 0.8 ± 0.008. The Adjuvant index in series [1] (setting [11]) came to 0.9 ± 0.03. Besides, the Anti-ovalbumin antibody titer is 2250 ± 100 in series [1] (setting [5]); 4300 ± 150 in series [1] (setting [6]); 43500 ± 400 in series [1] (setting [7]); 19000 ± 200 in series [1] (setting [8]); 15700 ± 280 in series [1] (setting [9]); 2000 ± 20 in series [1] (setting [10]). The Anti-ovalbumin antibody titer in series [1] (setting [11]) turned out to be 5400 ± 200. In addition, in series [1] (first immunization with 5-10 μg of OVA), the “adjuvant dose at which antibody titer peaked” value turned out to be 1 μg/mouse. Moreover, the “adjuvant activity (in words)” value in series [1] (ovalbumin in mice) is “strongly enhanced antibody response”. Also, the “anti-ovalbumin antibody titer relative to the titer of control serum” value in series [1] (under optimal conditions) is recorded as 6.5-7.5 times. In addition, the “anti-polysaccharide antibody titer (in words)” value in series [2] is on record as “increased considerably”. For the same compound, in series [3], the “increase in Ia-positive cell number” value is 10%. In addition, in series [4], the “increase in body temperature” value was “did not produce this effect”. Also, in the series on E. coli strain K12, the “protection from E. coli infection (in words)” value is “substantial protection; also recorded: substantial anti-infective mode of action”.
